The target of one data set is NR1A/NR2B NMDA receptor (Rattus norvegicus, UniProt P35439+Q00960). The data set can be described thus: Electrophysiological assay at NMDA receptor subunits expressed in Xenopus oocytes. The class given is cell-based. The settings on record: cloned rat NR1A/NR2B in Xenopus oocytes, two-electrode voltage clamp, glutamate 100 μM + glycine 1-100 μM; read-out: NR1A/NR2B Oocyte IC50. An excerpt:
Preparation of RNA. cDNA clones encoding the NR1A, NR2A, NR2B, and NR2C rat NMDA receptor subtypes were used (see, Moriyoshi, supra., 1991; Kutsuwada et al., supra., 1992; Monyer et al., supra, 1992; Ikeda et al., FEBS Lett., 1992;313:34-38; Ishii et al., J. Biol. Chem., 1993;268:2836-2843 for details of these clones or their mouse homologs). The clones were transformed into appropriate host bacteria and plasmid preparations were made with conventional DNA purification techniques. A sample of each clone linearized by restriction enzyme digestion […] was synthesized with T3 RNA polymerase. The cRNA was diluted to 400 ng/μL and stored in 1-μL aliquots at −80° C. until injection.
The Xenopus oocyte expression system. Mature female Xenopus laevis were anaesthetized (20-40 minutes) using 0.15% 3-aminobenzoic acid ethyl ester (MS-222), and 2 to 4 ovarian lobes were surgically removed. Oocytes at developmental stages IV-VI (Dumont J. N., J. Morphol., 1972;136:153-180) were dissected from the ovary still surrounded by enveloping ovarian tissues. Follicle-enclosed oocytes were microinjected with 1:1 mixtures of NR1A:NR2A, 2B or 2C; injecting 1 to 10 ng of RNA encoding each receptor subunit. NR1A encoding RNA was injected alone at ˜20 ng. Oocytes were stored in Barth's medium containing (in mM): NaCl, 88; KCl, 1; CaCl2, 0.41; Ca (NO3)2, 0.33; MgSO4, 0.82; NaHCO3, 2.4; HEPES 5; pH 7.4, with 0.11 mg/mL gentamicin sulphate. While oocytes were still surrounded by enveloping ovarian tissues, the Barth's medium was supplemented with 0.1% bovine serum. Oocytes were defolliculated 1 to 2 days following injections by treatment with collagenase (0.5 mg/mL Sigma Type I for 0.5-1 hr)-(Miledi and Woodward, J. Phsyiol., (Lond) 1989;416:601-621) and subsequently stored in serum-free medium.
Electrical recordings were made using a conventional two-electrode voltage clamp (Dagan TEV-200) over periods ranging between 3 to 21 days following injection (Woodward et al., Mol. Pharmacol., 1992;41:89-103). Oocytes were placed in a 0.1-mL recording chamber continuously perfused (5 mL-15 mL min^−1) with frog Ringer's solution containing (in mM): NaCl, 115; KCL, 2; BaCl2, 1.8; HEPES, 5; and pH 7.4. Drugs were applied by bath perfusion. Using oocytes expressing different subunit combinations of NMDA receptor, NMDA currents were activated by co-application of glutamate (100 μM) and glycine (1-100 μM). Inhibitory potency of the novel antagonists was assessed on responses elicited by fixed concentrations of glutamate and glycine, by measuring reductions in current induced by progressively increasing concentrations of antagonist.
Concentration-inhibition curves were fit with Equation 1.
I/Icontrol=1/(1+([antagonist]/10−^pIC50)^n) Eq. 1
In which Icontrol is the current evoked by agonists alone, pIC50=−log IC50, IC50 is the concentration of antagonist that produced half maximal inhibition, and n is the slope factor (De Lean et al., Am. J. Physiol., 1978;235:E97-102). For incomplete curves, analysis by fitting was unreliable and IC50 values were calculated by simple regression over linear portions of the curves (Origin: Microcal Software).
For orientation: Two-electrode voltage clamp is typically applied to oocytes expressing channels or transporters.

Data set [1] addresses T1, [3H]ifenprodil binding site, rat forebrain membranes (Rattus norvegicus, UniProt P35439+Q00960).
T1 construct: membrane fraction was prepared from frozen adult rat forebrains; tissue Zivic-Miller Laboratories, Inc; host or cells: adult rat forebrain, washed buffy coat membrane fraction
The data set can be described thus: [3H]Ifenprodil binding assay. The settings on record: 4 nM [3H]-ifenprodil, 2 hours at room temperature. A digest of the protocol:
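Washed rat forebrain buffy coat membranes (100-200 μg protein) were incubated with 4 nM [3H]ifenprodil in 20 mM HEPES-KOH pH 7.4 for 2 hours at room temperature, in triplicate, then filtered on PEI-soaked GF/B filters. Nonspecific binding was set with 1 mM ifenprodil. IC50 came from a one- or two-site competition fit.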

For data set [2], the system named is 6-Hydroxydopamine-lesioned rats. Put plainly: 6-OHDA lesioned rat assay. It is filed as in vivo. The settings on record: for 6-OHDA MED: minimum effective dose to potentiate contraversive rotation induced by L-DOPA methyl ester 10 mg/kg SC, 6-hour period; for 6-OHDA active/inactive at the given dose: statistically significant increase in contraversive rotations vs L-DOPA only. The method, then:
6-Hydroxydopamine-lesioned rats were used (see Ungerstedt U., Arbuthnott G. W., Quantitative recording of rotational behavior in rats after 6-hydroxy-dopamine lesions of the nigrostraiatal dopamine system. Brain Res., 1971;24(3):485-93). Adult male Sprague-Dawley rats were anesthetized with chloral hydrate and unilateral lesions of the nigrostriatal dopamine system were accomplished by infusion of 8 μg of 6-hydroxydopamine HBr (6-OHDA) into the right medial forebrain bundle. Rats were pretreated 30 minutes before surgery with desipramine HCl 25 mg/kg intraperitoneally (IP) to protect noradrenegic neurons, and pargyline 25 mg/kg IP to potentiate the effects of 6-OHDA. A minimum of 3 weeks after surgery, the rotational behavior induced by apomorphine HCL 50 μg/kg subcutaneously (SC) was assessed.
Rotational behavior was measured using an automatic rotometer system (Rotorat Rotational Activity System, MED Associates, Georgia, Vt.). Anti-parkinsonian activity was assessed as the ability of the compound to potentiate the contraversive rotation induced by L-DOPA methyl ester, 10 mg/kg SC, over a 6-hour period. Experiments were conducted using a crossover paradigm where each rat received either a vehicle plus L-DOPA, or the test compound plus L-DOPA, in randomized order. Rats were tested at 7-day intervals. In experiments in which the compound was tested orally, rats were food deprived for 16 hours. Statistical analysis between treatment groups were performed using a paired t-test. The results were reported in Table 1 as the minimum effective dose (MED) of compound (mg/kg) required to produce a statistically-significant increase in total contraversive rotations compared to rats receiving L-DOPA only.

What is called melting point is the temperature of the solid-liquid transition.

Chain of NR1A/NR2B NMDA receptor (Q00960 27-1482, other chains not shown): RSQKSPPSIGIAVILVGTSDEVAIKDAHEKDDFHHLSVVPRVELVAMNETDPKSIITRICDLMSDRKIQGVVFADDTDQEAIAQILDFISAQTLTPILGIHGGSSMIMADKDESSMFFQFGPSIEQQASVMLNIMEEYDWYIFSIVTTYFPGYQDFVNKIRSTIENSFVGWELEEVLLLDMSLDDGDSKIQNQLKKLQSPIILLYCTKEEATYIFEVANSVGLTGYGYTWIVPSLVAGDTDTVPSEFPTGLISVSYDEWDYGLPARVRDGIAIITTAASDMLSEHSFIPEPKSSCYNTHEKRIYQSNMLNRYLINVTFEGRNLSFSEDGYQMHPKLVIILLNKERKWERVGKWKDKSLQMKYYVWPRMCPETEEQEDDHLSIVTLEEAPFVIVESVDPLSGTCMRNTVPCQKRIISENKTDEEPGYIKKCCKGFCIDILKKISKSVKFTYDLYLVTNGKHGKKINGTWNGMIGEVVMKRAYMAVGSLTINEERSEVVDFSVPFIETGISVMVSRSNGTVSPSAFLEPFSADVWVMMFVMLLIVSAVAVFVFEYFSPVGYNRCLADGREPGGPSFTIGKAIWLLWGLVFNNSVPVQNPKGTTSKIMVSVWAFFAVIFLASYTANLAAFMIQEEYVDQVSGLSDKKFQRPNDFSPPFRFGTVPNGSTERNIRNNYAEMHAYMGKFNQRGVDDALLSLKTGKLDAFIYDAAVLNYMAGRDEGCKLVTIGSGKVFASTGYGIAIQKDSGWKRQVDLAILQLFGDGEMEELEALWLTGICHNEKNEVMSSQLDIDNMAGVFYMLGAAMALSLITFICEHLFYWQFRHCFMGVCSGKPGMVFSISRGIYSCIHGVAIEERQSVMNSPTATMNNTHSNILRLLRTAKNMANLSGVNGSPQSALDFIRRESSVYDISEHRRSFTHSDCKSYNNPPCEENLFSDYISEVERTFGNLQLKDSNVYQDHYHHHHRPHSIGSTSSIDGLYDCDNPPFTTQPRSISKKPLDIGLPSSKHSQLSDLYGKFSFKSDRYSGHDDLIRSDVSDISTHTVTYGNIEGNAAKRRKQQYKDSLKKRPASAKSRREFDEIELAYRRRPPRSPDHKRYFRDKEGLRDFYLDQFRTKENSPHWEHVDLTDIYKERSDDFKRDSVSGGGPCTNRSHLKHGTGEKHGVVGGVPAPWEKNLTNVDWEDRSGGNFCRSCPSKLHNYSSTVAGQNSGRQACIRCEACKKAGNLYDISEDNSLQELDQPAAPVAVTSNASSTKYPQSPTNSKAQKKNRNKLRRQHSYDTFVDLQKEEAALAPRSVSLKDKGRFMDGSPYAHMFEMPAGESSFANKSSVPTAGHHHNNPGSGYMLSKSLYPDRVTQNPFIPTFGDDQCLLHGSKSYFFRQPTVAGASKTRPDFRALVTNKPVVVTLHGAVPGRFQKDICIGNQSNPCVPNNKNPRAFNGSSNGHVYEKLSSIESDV
T1 sequence (Q00960 27-1482, other chains not shown): as above

On to `O=c1[nH]c2ccc([C@H]3CC[C@H](NCCOc4ccc(F)cc4)CC3)cc2o1` [Example 2, 6-{trans-4-[2-(4-Fluorophenoxy)ethylamino]cyclohexyl}-3H-benzoxazol-2-one], for which the melting point was in the range of 172 to 176 °C. Further, the IC50 at NR1A/NR2B NMDA receptor is 100 nM. This compound also registered an IC50 in data set [1] of 40 nM. In addition, in data set [2], the “6-OHDA MED” value was found to be 10.0 mg/kg and the “6-OHDA active/inactive at the given dose” value is recorded as “active”.
On the same counts, the results for `CN(CCCc1ccc(F)cc1)[C@H]1CC[C@H](c2ccc3[nH]c(=O)oc3c2)CC1` [Example 18, 6-(trans-4-{[3-(4-Fluorophenyl)propyl]methylaamino}cyclohexyl)-3H-benzoxazol-2-one] are 62 to 65 °C, 65 nM, 9 nM, 10 mg/kg and “active”.

For the origin of these results see patent publication US6794402B2, “Bicyclic cyclohexylamines and their use as NMDA receptor antagonists” (Warner-Lambert Company, priority 2000, dated 2004).
